According to patent publication US7501424B2, “N-phenyl-2-pyrimidine-amine derivatives and process for the preparation thereof” (Il-Yang Pharm. Co., Ltd., priority 2005, dated 2009):
In brackets after ≈: the same amount, converted by molar mass. Where two headings read alike, the source gives them in different places.

Experiments:
SK-OV-03 = assay: Growth inhibition of ovarian cancer cell SK-OV-03 (MTT); type: cell-based; conditions: for IC50: SK-OV-03, Experiment 4
Description: (§1) In the present experiment, the inhibitory activity of the compound of formula (1) was determined against the growth of K562 cancer cell. First, the cells were allowed to stand in RPMI (Roswell Park Memorial Institute)-1640 medium containing 10% (v/v) fetal bovine serum in an incubator of 37° C. and 5% by volume of CO2. The cancer cells (1000 cells) were transferred to a 96-well plate, and the test compound was diluted. The plate was allowed to stand under the above mentioned conditions for 2 days. After this treatment, to the cells was added 0.2% MTT (3-[4,5-dimethylthiazol-2-yl]-2,5-diphenyltetrazolium bromide) solution, and the resulting mixture was allowed to stand under the constant temperature-condition for 4 hours. The supernatant was removed to leave the resulting crystal. DMSO was added to dissolve the crystal, and the absorbance of the solution was measured at 540 nm. IC50 value was calculated using a computer system according to the following formula: (OD540(test)−OD540(blank)/OD540(control)−OD540(blank))×100
(§2) The test was performed according to the same procedure as Experiment 1.

Sarcoma-180 = assay: Growth inhibition of Sarcoma-180 (MTT); type: cell-based; conditions: for IC50: Sarcoma-180, Experiment 4
Description: as §1, §2

A549 = assay: Growth inhibition of lung cancer cell A549 (MTT); type: cell-based
Description: as §1, §2, §2

KB = assay: Growth inhibition of oral epithelial cancer cell KB (MTT); type: cell-based
Description: as §1, §2

SNU-1 = assay: Growth inhibition of gastric cancer cell SNU-1 (MTT); type: cell-based
Description: as §1, §2, §2

[1] = Acute toxicity test in rat (oral administration); type: in vivo; conditions: both sexes, SD, rat, in vivo, po
Description: (§3) In this test, the acute toxicity of the compound of the present invention when the compound is […] was determined on rat (SD-Rat, 100˜110 g). One group consists of 5 males and 5 females. The first group is the control group and 0.5% CMC was intravenously administered to this group. The compounds of Examples 5 and 8 were orally administered in a dosage of 1,000, 2,000 mg/kg, respectively, to each test group. […] On the last day of the test, 14th day from the start, the rat were subjected to an autopsy in order to examine changes of the internal organs. […] Further, since no […] died during the test period, it was confirmed that the compounds of Examples 5 and 8 have LD50 of 2,000 mg/kg or more. This means that the compounds of the present invention including those of Examples 5 and 8 are safe in the aspect of acute toxicity.

rat (SD-Rat) = assay: Acute toxicity test in rat (oral administration); type: in vivo; conditions: SD-Rat, orally 1,000, 2,000 mg/kg, 14 days
Description: as §3

CT-26 cancer cell = assay: Growth inhibition of CT-26 cancer cell (MTT); type: cell-based; conditions: for improved activity compared with Imatinib mesylate: CT-26; for IC50: CT-26, MTT, 2 days
Description: as §1
In the present experiment, the inhibitory activity of the compounds of formula (1) was determined against the growth of CT-26 cancer cell. The test was performed according to the same procedure as Experiment 1.

K562 cancer cell = assay: Growth inhibition of K562 cancer cell (MTT); type: cell-based; conditions: for IC50: Homo sapiens, K562, 48 h, K562, MTT, 2 days; for improved activity compared with Imatinib mesylate: K562
Description: as §1

SNU-C1 = assay: Growth inhibition of colon cancer cell SNU-C1 (MTT); type: cell-based; conditions: Homo sapiens; SNU-C1, Experiment 3
Description: as §1, §2

A-172 = assay: Growth inhibition of encephalophyma cell A-172 (MTT); type: cell-based; conditions: Homo sapiens; A-172, Experiment 3
Description: as §1, §2

HT-1197 = assay: Growth inhibition of bladder cancer cell HT-1197 (MTT); type: cell-based; conditions: Homo sapiens, HT1197; HT-1197, Experiment 3
Description: as §1, §2

[2] = Comparative pharmacokinetic test in white rats
[3] = Acute toxicity test in mice (oral administration); type: in vivo; conditions: both sexes, ICR, mouse, in vivo, po
Description: (§4) In order to determine the acute toxicity of the compound of the present invention when the compound is orally administered, mice (ICR, 24˜26 g) were fasted for 16 hours. One group consists of 10 males and 10 females. The first group is the control group and 0.5% sodium carboxymethyl cellulose (CMC) was administered per oral to this group. The compounds of Examples 5 and 8 were orally administered in a dosage of 2,000 mg/kg, the maximum dosage in acute toxicity test, to each test group. […] On the last day of the test, 14th day from the start, the mice were subjected to an autopsy in order to examine changes of the internal organs. […] Further, since no mouse died during the test period, it was confirmed that the compounds of Examples 5 and 8 have LD50 of 2,000 mg/kg or more. This means that the compounds of the present invention including those of Examples 5 and 8 are safe in the aspect of acute toxicity.

mice (ICR) = assay: Acute toxicity test in mice (oral administration); type: in vivo; conditions: mice (ICR), oral 2,000 mg/kg, 14 days
Description: as §4

Panc-1 = assay: Growth inhibition of pancreatic cancer cell Panc-1 (MTT); type: cell-based; conditions: Homo sapiens; Panc-1, Experiment 3
Description: as §1, §2

RPMI-6666 = assay: Growth inhibition of lymphoma cell RPMI-6666 (MTT); type: cell-based; conditions: Homo sapiens; RPMI-6666, Experiment 3
Description: as §1, §2

in vivo = conditions: male, Sprague-Dawley, rat, po, 100 mg/kg
[4] = Homo sapiens, A549, Experiment 3, read-out: IC50
[5] = Mus musculus, CT26, 48 h, read-out: IC50
[6] = Homo sapiens, SNU1, SNU-1, Experiment 3, read-out: IC50
[7] = male, Sprague-Dawley, rat, plasma, po, 100 mg/kg

`N.N.[Cl][Pt][Cl]` [Cisplatin, reference compound] showed an IC50 (SK-OV-03) of 782 ng/mL, an IC50 (Sarcoma-180) of less than 0.1 ng/mL and an IC50 (A549; A549, Experiment 4) of 679 ng/mL. For the same compound, the IC50 (KB; Experiment 4) was 0.28 ng/mL and the IC50 (SNU-1; SNU-1, Experiment 4) was 2064 ng/mL.

With `Cc1cn(-c2cc(NC(=O)c3ccc(C)c(Nc4nccc(-c5nccs5)n4)c3)cc(C(F)(F)F)c2)cn1` [Example 5, 4-methyl-N-[3-(4-methylimidazol-1-yl)-5-trifluoromethyl-phenyl]-3-(4-thiazol-2-yl-pyrimidin-2-ylamino)-benzamide] the LD50 at 14 days [1] was no less than 2000 mg/kg, the “clinical conditions and autopsy” value (rat (SD-Rat)) was “neither abnormal response nor specific autopsy result was observed” and the IC50 (A549; [4]) was 82 ng/mL (≈ 0.153 µM). For the same compound, the “improved activity compared with Imatinib mesylate” value (CT-26 cancer cell) was 300 times, the IC50 (CT-26 cancer cell; [5]) was 60 ng/mL (≈ 0.112 µM) and the IC50 (K562 cancer cell) was no more than 10 ng/mL. For the same compound, the “improved activity compared with Imatinib mesylate” value (K562 cancer cell) was 50 times, the IC50 (SNU-C1) was less than 10 ng/mL and the IC50 (A-172) was less than 10 ng/mL. For the same compound, the IC50 (SNU-1; [6]) was less than 10 ng/mL, the IC50 (HT-1197) was 63 ng/mL (≈ 0.118 µM) and the AUC [2, 7] was 114000 ng·h/mL. For the same compound, the Cmax [2, 7] was 8270 ng/mL, the Tmax [2, 7] was 11.2 h and the “AUC as much as that of Imatinib mesylate” value ([2]; white rats, 100 mg/kg per oral) was roughly 5 times. For the same compound, the “Cmax as much as that of Imatinib mesylate” value ([2]; white rats, 100 mg/kg per oral) was “about 4 times”, the LD50 at 14 days [3] was no less than 2000 mg/kg and the “clinical conditions and autopsy” value (mice (ICR)) was “neither abnormal response nor specific autopsy result was observed”. The IC50 (Panc-1) was 7100 ng/mL (≈ 13.3 µM) and the IC50 (RPMI-6666) was less than 10 ng/mL.

For `Cc1ccc(C(=O)Nc2cc(-n3ccnc3C)cc(C(F)(F)F)c2)cc1Nc1nccc(-c2nccs2)n1` [Example 6, 4-methyl-N-[3-(2-methylimidazol-1-yl)-5-trifluoromethyl-phenyl]-3-(4-thiazol-2-yl-pyrimidin-2-ylamino)-benzamide], the “improved activity compared with Imatinib mesylate” value (CT-26 cancer cell) was 300 times, the IC50 (CT-26 cancer cell; [5]) was less than 10 ng/mL and the “improved activity compared with Imatinib mesylate” value (K562 cancer cell) was 50 times.

In the case of `Cc1cnc(NC(=O)c2ccc(C)c(Nc3nccc(-c4nccs4)n3)c2)s1` [Example 7, 4-methyl-N-(5-methylthiazol-2-yl)-3-(4-thiazol-2-yl-pyrimidin-2-ylamino)-benzamide], the “improved activity compared with Imatinib mesylate” value (CT-26 cancer cell) is reported as 300 times, the IC50 (CT-26 cancer cell; [5]) is reported as less than 10 ng/mL and the IC50 (K562 cancer cell) is reported as no more than 10 ng/mL. The “improved activity compared with Imatinib mesylate” value (K562 cancer cell) was 50 times.

With `Cc1cn(-c2cc(NC(=O)c3ccc(C)c(Nc4nccc(-c5cnccn5)n4)c3)cc(C(F)(F)F)c2)cn1` [Example 8, 4-methyl-N-[3-(4-methylimidazol-1-yl)-5-trifluoromethyl-phenyl]-3-(4-pyrazin-2-yl-pyrimidin-2-ylamino)-benzamide] the “improved activity than Imatinib mesylate” value (SK-OV-03; SK-OV-03) was greater than 12 times, the IC50 (SK-OV-03; read-out: IC50) was 2390 ng/mL (≈ 4.51 µM) and the IC50 (Sarcoma-180; Mus musculus, read-out: IC50) was less than 0.1 ng/mL. The “improved activity than Imatinib mesylate” value (Sarcoma-180; Sarcoma-180) was “more than 1×10^4 time”, the LD50 at 14 days [1] was no less than 2000 mg/kg and the “clinical conditions and autopsy” value (rat (SD-Rat)) was “neither abnormal response nor specific autopsy result was observed”. For the same compound, the “improved activity than Imatinib mesylate” value (A549; A549, Experiment 4) was greater than 3.5 times, the IC50 (A549; [4]) was 2230 ng/mL (≈ 4.2 µM) and the “improved activity compared with Imatinib mesylate” value (CT-26 cancer cell) was 300 times. For the same compound, the IC50 (CT-26 cancer cell; [5]) was less than 10 ng/mL, the AUC (in vivo) was 61300 ng·h/mL and the Cmax (in vivo) was 4100 ng/mL. For the same compound, the Tmax (in vivo) was 12 h, the “improved activity than Imatinib mesylate” value (KB) was “more than 1×10^4 time” and the IC50 (KB; Homo sapiens, Experiment 4, read-out: IC50) was 0.58 ng/mL (≈ 0.00109 µM). The IC50 (K562 cancer cell) was no more than 10 ng/mL, the “improved activity compared with Imatinib mesylate” value (K562 cancer cell) was 50 times and the IC50 (SNU-C1) was less than 10 ng/mL. The IC50 (A-172) was less than 10 ng/mL, the IC50 (SNU-1; [6]) was less than 10 ng/mL and the IC50 (SNU-1; Homo sapiens, SNU1, SNU-1, Experiment 4, read-out: IC50) was 270 ng/mL (≈ 0.509 µM). For the same compound, the “improved activity in comparison with cisplatin” value (SNU-1; SNU-1, Experiment 4) was “more than 8 times”, the “improved activity than Imatinib mesylate” value (SNU-1; SNU-1, Experiment 4) was “more than 170 times” and the LD50 at 14 days [3] was no less than 2000 mg/kg. The “clinical conditions and autopsy” value (mice (ICR)) was “neither abnormal response nor specific autopsy result was observed”, the IC50 (Panc-1) was 498 ng/mL (≈ 0.939 µM) and the IC50 (RPMI-6666) was less than 10 ng/mL.

With `Cc1ccc(C(=O)Nc2cc(-n3ccnc3C)cc(C(F)(F)F)c2)cc1Nc1nccc(-c2cnccn2)n1` [Example 9, 4-methyl-N-[3-(2-methylimidazol-1-yl)-5-trifluoromethyl-phenyl]-3-(4-pyrazin-2-yl-pyrimidin-2-ylamino)-benzamide] the “improved activity compared with Imatinib mesylate” value (CT-26 cancer cell) was 300 times, the IC50 (CT-26 cancer cell; [5]) was less than 10 ng/mL and the IC50 (K562 cancer cell) was no more than 10 ng/mL. For the same compound, the “improved activity compared with Imatinib mesylate” value (K562 cancer cell) was 50 times.

With `Cc1cn(-c2cc(NC(=O)c3ccc(C)c(Nc4nccc(-c5nccnc5C)n4)c3)cc(C(F)(F)F)c2)cn1` [Example 12, 4-methyl-N-[3-(4-methylimidazol-1-yl)-5-trifluoromethyl-phenyl]-3-[4-(3-methylpyrazin-2-yl)-pyrimidin-2-ylamino]-benzamide] the IC50 (CT-26 cancer cell; [5]) was 2930 ng/mL (≈ 5.38 µM), the IC50 (K562 cancer cell) was 210 ng/mL (≈ 0.386 µM) and the “improved activity compared with Imatinib mesylate” value (K562 cancer cell) was “much higher activity than Imatinib mesylate”.

In the case of `Cc1ccc(C(=O)Nc2cc(-n3ccnc3C)cc(C(F)(F)F)c2)cc1Nc1nccc(-c2nccnc2C)n1` [Example 13, 4-methyl-N-[3-(2-methylimidazol-1-yl)-5-trifluoromethyl-phenyl]-3-[4-(3-methylpyrazin-2-yl)-pyrimidin-2-ylamino]-benzamide], the IC50 (CT-26 cancer cell; [5]) is reported as 3770 ng/mL (≈ 6.92 µM), the IC50 (K562 cancer cell) is reported as 304 ng/mL (≈ 0.558 µM) and the “improved activity compared with Imatinib mesylate” value (K562 cancer cell) is reported as “much higher activity than Imatinib mesylate”.

For `Cc1cn(-c2cc(NC(=O)c3ccc(Nc4nccc(-c5cccnc5)n4)cc3)cc(C(F)(F)F)c2)cn1.Cl.Cl` [Example 24, N-[3-(4-methylimidazol-1-yl)-5-trifluoromethyl-phenyl]-4-(4-pyridin-3-yl-pyrimidin-2-ylamino)-benzamide 2 hydrochloride], the “improved activity compared with Imatinib mesylate” value (CT-26 cancer cell) was 300 times, the IC50 (CT-26 cancer cell) was 2.3 ng/mL and the “improved activity compared with Imatinib mesylate” value (K562 cancer cell) was 50 times.

With `Cc1cn(-c2cc(NC(=O)c3ccc(Nc4nccc(-c5nccs5)n4)cc3)cc(C(F)(F)F)c2)cn1.Cl.Cl` [Example 30, N-[3-(4-methylimidazol-1-yl)-5-trifluoromethyl-phenyl]-4-(4-thiazol-2-yl-pyrimidin-2-ylamino)-benzamide 2 hydrochloride] the “improved activity compared with Imatinib mesylate” value (CT-26 cancer cell) was 300 times, the IC50 (CT-26 cancer cell) was 9.4 ng/mL and the “improved activity compared with Imatinib mesylate” value (K562 cancer cell) was 50 times.
